Assay results published in ChEMBL document CHEMBL5370544, “Design, synthesis, and biological evaluation of 1-styrenyl isoquinoline derivatives for anti-hepatocellular carcinoma activity and effect on mitochondria” (Eur J Med Chem, 2023).
Activity calls are given as the source filed them. No cut-off for these calls is given here.

Columns and labels:
HCCLM9 = assay: Antiproliferative activity against human HCCLM9 cells assessed as inhibition of cell growth measured after 72 hrs by MTT assay; format: functional, cell-based; settings: HCCLM9, 72 h
SK-HEP1 [1] = assay: Antiproliferative activity against human SK-HEP1 cells assessed as inhibition of cell growth measured after 72 hrs by MTT assay; format: functional, cell-based
Huh-7 [2] = assay: Antiproliferative activity against human Huh-7 cells assessed as inhibition of cell growth measured after 72 hrs by MTT assay; format: functional, cell-based
HepG2 = assay: Antiproliferative activity against human HepG2 cells assessed as inhibition of cell growth measured after 72 hrs by MTT assay; format: functional, cell-based; settings: HepG2, 72 h
Huh-7 [3] = assay: Inhibition of colony formation in human Huh-7 cells assessed as reduction in number of cell colonies at 0.55 to 2.2 uM measured after 10 and 14 days by crystal violet staining based light microscopic analysis; format: functional; settings: dose 0.55-2.2 µM, time 14.0 day
SK-HEP1 [4] = assay: Antiproliferative activity against human SK-HEP1 cells assessed as reduction in ratio of EdU-positive cells measured after 24 hrs by EdU incorporation assay; format: functional, cell-based; settings: dose 1.25-5 µM
Huh-7 [5] = assay: Induction of cell cycle arrest in human Huh-7 cells assessed as decrease in cyclin A expression incubated for 48 hrs by Western blotting analysis; format: functional, cell-based; settings: dose 0.9-8.1 µM
Huh-7 [6] = assay: Induction of cell cycle arrest in human Huh-7 cells assessed as decrease in cyclin B1 expression incubated for 48 hrs by Western blotting analysis; format: functional, cell-based; settings: dose 0.9-8.1 µM
SK-HEP1 [7] = assay: Induction of cell cycle arrest in human SK-HEP1 cells assessed as decrease in cyclin A expression incubated for 48 hrs by Western blotting analysis; format: functional, cell-based; settings: dose 1.5-13.5 µM
SK-HEP1 [8] = assay: Induction of cell cycle arrest in human SK-HEP1 cells assessed as decrease in cyclin B1 expression incubated for 48 hrs by Western blotting analysis; format: functional, cell-based; settings: dose 1.5-13.5 µM
SK-HEP1 [9] = assay: Inhibition of cell migration in human SK-HEP1 cells at 1.25 to 5 uM incubated for 24 hrs by crystal violet staining based transwell migration assay; format: functional; settings: dose 1.25-5 µM
Huh-7 [10] = assay: Antiinvasive activity in human Huh-7 cells assessed as reduction in number of invasive cells at 0.55 to 2.2 uM incubated for 24 hrs by transwell invasion assay; format: functional, cell-based; settings: dose 0.55-2.2 µM
Huh-7 [11] = assay: Antimigratory activity against human Huh-7 cells assessed as down-regulation of N-cadherin expression at 0.55 to 2.2 uM incubated 24 hrs by Western blotting analysis; format: functional, cell-based; settings: dose 0.55-2.2 µM
Huh-7 [12] = assay: Induction of apoptosis in human Huh-7 cells assessed as cell shrinkage at 0.9 to 8.1 uM incubated for 24 hrs by giemsa staining based micrscopic analysis; format: functional; settings: dose 0.9-8.1 µM
Huh-7 [13] = assay: Induction of apoptosis in human Huh-7 cells assessed as chromatin condensation at 0.9 to 8.1 uM incubated for 24 hrs by giemsa staining based micrscopic analysis; format: functional, cell-based; settings: dose 0.9-8.1 µM
Huh-7 [14] = assay: Induction of apoptosis in human Huh-7 cells assessed as nuclear membrane breakdown at 0.9 to 8.1 uM incubated for 24 hrs by giemsa staining based micrscopic analysis; format: functional, cell-based; settings: dose 0.9-8.1 µM
Huh-7 [15] = assay: Induction of apoptosis in human Huh-7 cells assessed as formation of apoptotic bodies at 0.9 to 8.1 uM incubated for 24 hrs by giemsa staining based micrscopic analysis; format: functional, cell-based; settings: dose 0.9-8.1 µM
SK-HEP1 [16] = assay: Induction of apoptosis in human SK-HEP1 cells assessed as cell shrinkage at 1.5 to 13.5 uM incubated for 24 hrs by giemsa staining based micrscopic analysis; format: functional; settings: dose 1.5-13.5 µM
SK-HEP1 [17] = assay: Induction of apoptosis in human SK-HEP1 cells assessed as chromatin condensation at 1.5 to 13.5 uM incubated for 24 hrs by giemsa staining based micrscopic analysis; format: functional, cell-based; settings: dose 1.5-13.5 µM
SK-HEP1 [18] = assay: Induction of apoptosis in human SK-HEP1 cells assessed as nuclear membrane breakdown at 1.5 to 13.5 uM incubated for 24 hrs by giemsa staining based micrscopic analysis; format: functional, cell-based; settings: dose 1.5-13.5 µM
SK-HEP1 [19] = assay: Induction of apoptosis in human SK-HEP1 cells assessed as formation of apoptotic bodies at 1.5 to 13.5 uM incubated for 24 hrs by giemsa staining based micrscopic analysis; format: functional, cell-based; settings: dose 1.5-13.5 µM
Huh-7 [20] = assay: Induction of mitochondrial membrane potential depolarization in human Huh-7 cells incubated for 24 hrs by TMRE staining based flow cytometry analysis; format: functional, cell-based; settings: dose 0.9-8.1 µM
Huh-7 [21] = assay: Induction of apoptosis in human Huh-7 cells assessed as increase in cleaved caspase-9 expression at 0.9 to 8.1 uM incubated for 48 hrs by Western blotting analysis; format: functional, cell-based; settings: dose 0.9-8.1 µM
SK-HEP1 [22] = assay: Induction of apoptosis in human SK-HEP1 cells assessed as increase in cleaved caspase-3 expression at 1.5 to 13.5 uM incubated for 48 hrs by Western blotting analysis; format: functional, cell-based; settings: dose 1.5-13.5 µM
SK-HEP1 [23] = assay: Induction of apoptosis in human SK-HEP1 cells assessed as increase in cleaved caspase-9 expression at 1.5 to 13.5 uM incubated for 48 hrs by Western blotting analysis; format: functional, cell-based; settings: dose 1.5-13.5 µM
Huh-7 [24] = assay: Inhibition of PI3K signalling pathway in human Huh-7 cells assessed as inhibition of PI3K phosphorylation at 0.9 to 8.1 uM measured after 48 hrs by Western blotting analysis; format: cell-based; settings: dose 0.9-8.1 µM
[25] = target: T1, Serine/threonine-protein kinase AKT (Homo sapiens) (UniProt P31751+Q9Y243+P31749); assay: Inhibition of Akt signalling pathway in human Huh-7 cells assessed as inhibition of Akt phosphorylation at 0.9 to 8.1 uM measured after 48 hrs by Western blotting analysis; format: cell-based; settings: dose 0.9-8.1 µM
T1 sequence (P31749 whole entry, looked up): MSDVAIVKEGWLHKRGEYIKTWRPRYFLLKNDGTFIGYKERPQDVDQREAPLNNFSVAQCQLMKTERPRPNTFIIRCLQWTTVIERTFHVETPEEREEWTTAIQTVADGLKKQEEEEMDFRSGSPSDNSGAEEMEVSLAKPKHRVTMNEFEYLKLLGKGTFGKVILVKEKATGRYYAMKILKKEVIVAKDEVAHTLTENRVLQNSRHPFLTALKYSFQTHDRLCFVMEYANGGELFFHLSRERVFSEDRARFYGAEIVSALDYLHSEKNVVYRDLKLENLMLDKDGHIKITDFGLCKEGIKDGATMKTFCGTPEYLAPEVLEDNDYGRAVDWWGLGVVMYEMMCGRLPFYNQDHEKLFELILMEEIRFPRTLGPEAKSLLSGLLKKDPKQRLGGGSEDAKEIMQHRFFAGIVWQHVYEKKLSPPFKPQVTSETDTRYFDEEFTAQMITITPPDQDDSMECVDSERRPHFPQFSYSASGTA
T1 sequence (P31751 whole entry, looked up): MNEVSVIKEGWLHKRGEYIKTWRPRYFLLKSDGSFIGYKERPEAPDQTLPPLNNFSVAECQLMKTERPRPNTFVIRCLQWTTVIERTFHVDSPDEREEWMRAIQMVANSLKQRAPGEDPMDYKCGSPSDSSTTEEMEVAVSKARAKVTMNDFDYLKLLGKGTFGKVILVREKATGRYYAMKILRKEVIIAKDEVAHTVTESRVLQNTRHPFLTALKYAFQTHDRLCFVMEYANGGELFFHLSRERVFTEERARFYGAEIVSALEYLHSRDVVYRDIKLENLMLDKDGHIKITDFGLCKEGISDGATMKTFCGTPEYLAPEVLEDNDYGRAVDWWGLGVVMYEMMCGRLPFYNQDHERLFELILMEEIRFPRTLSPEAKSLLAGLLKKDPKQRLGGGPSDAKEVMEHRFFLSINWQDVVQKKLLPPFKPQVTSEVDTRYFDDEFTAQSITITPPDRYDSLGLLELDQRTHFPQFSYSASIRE
T1 sequence (Q9Y243 whole entry, looked up): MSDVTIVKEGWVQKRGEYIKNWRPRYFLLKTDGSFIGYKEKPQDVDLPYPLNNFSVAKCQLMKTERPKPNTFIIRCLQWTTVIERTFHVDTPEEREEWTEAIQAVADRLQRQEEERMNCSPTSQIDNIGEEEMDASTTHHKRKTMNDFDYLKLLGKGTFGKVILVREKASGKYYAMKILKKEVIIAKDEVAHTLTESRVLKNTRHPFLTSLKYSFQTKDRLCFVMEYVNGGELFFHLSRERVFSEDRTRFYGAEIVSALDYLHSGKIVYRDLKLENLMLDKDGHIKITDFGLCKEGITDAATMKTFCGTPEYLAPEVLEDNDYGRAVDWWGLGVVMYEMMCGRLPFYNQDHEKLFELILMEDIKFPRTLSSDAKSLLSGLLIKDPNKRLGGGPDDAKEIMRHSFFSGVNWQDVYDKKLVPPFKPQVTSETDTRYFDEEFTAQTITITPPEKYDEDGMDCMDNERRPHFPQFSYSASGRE

[26] = target: T1, Serine/threonine-protein kinase AKT (Homo sapiens); assay: Inhibition of Akt signalling pathway in human SK-HEP1 cells assessed as inhibition of Akt phosphorylation at 1.5 to 13.5 uM measured after 48 hrs by Western blotting analysis; format: cell-based; settings: dose 1.5-13.5 µM
Huh-7 [27] = assay: Antitumor activity against human Huh-7 cells xenografted in BALB/c mouse assessed as reduction in tumor growth at 15 to 30 mg/kg, ip qd measured after 5 days; format: functional, organism-based; settings: dose 15-30 mg/kg, time 5.0 day
Huh-7 [28] = assay: Antitumor activity against human Huh-7 cells xenografted in BALB/c mouse assessed as reduction in tumor weight at 15 to 30 mg/kg, ip qd; format: functional, organism-based; settings: dose 15-30 mg/kg, time 14.0 day, TDE = time-dependent effect
Huh-7 [29] = assay: Antitumor activity against human Huh-7 cells xenografted in BALB/c mouse assessed as reduction in tumor volume at 15 to 30 mg/kg, ip qd; format: functional, organism-based; settings: dose 15-30 mg/kg, time 14.0 day, TDE = time-dependent effect
Huh-7 [30] = assay: Antitumor activity against human Huh-7 cells xenografted in ip dosed BALB/c mouse assessed as reduction in tumor weight measured after 14 days; format: functional, organism-based; settings: dose 15-30 mg/kg, time 14.0 day
Huh-7 [31] = assay: Antitumor activity against human Huh-7 cells xenografted in ip dosed BALB/c mouse assessed as reduction in tumor volume measured after 14 days; format: functional, organism-based; settings: dose 15-30 mg/kg, time 14.0 day
[32] = Toxicity in BALB/c mouse xenografted with human Huh-7 cells assessed as change in body weight at 15 to 30 mg/kg, ip qd measured after 14 days; format: organism-based; settings: in vivo, 336 h, dose 15-30 mg/kg, time 14 day
[33] = Acute toxicity in BALB/c mouse assessed as change in body weight at 650 mg/kg, ip measured after 14 days; format: organism-based; settings: in vivo, 336 h, time 14 day
[34] = Acute toxicity in BALB/c mouse assessed as change in body weight at 650 mg/kg, ip measured at day 2; format: organism-based; settings: in vivo, 48 h, time 2 day

CC(=O)Oc1ccccc1/C=C/c1nccc2ccccc12
IC50 (HCCLM9): 6.14 µM | Activity (SK-HEP1 [1]): Dose-Dependent Effect | IC50 (SK-HEP1 [1]; SK-HEP1, 72 h): 4.2 µM | Activity (Huh-7 [2]): Dose-Dependent Effect | IC50 (Huh-7 [2]; Huh-7, 72 h): 2.52 µM | IC50 (HepG2): 9.76 µM | inhibition (Huh-7 [3]): Active | Activity (SK-HEP1 [4]): Dose-Dependent Effect | Activity (Huh-7 [5]): Dose-Dependent Effect | Activity (Huh-7 [6]): Dose-Dependent Effect | Activity (SK-HEP1 [7]): Dose-Dependent Effect | Activity (SK-HEP1 [8]): Dose-Dependent Effect | inhibition (SK-HEP1 [9]): Active | Activity (Huh-7 [10]): Active | Activity (Huh-7 [11]): Active | Activity (Huh-7 [12]): Active | Activity (Huh-7 [13]): Active | Activity (Huh-7 [14]): Active | Activity (Huh-7 [15]): Active | Activity (SK-HEP1 [16]): Active | Activity (SK-HEP1 [17]): Active | Activity (SK-HEP1 [18]): Active | Activity (SK-HEP1 [19]): Active | Activity (Huh-7 [20]): Dose-Dependent Effect | Activity (Huh-7 [21]): Active | Activity (SK-HEP1 [22]): Active | Activity (SK-HEP1 [23]): Active | inhibition (Huh-7 [24]): Active | inhibition [25]: Active | inhibition [26]: Active | Activity (Huh-7 [27]): Active | Activity (Huh-7 [28]): Tde | Activity (Huh-7 [29]): Tde | Activity (Huh-7 [30]): Dose-Dependent Effect | Activity (Huh-7 [31]): Dose-Dependent Effect | Activity [32]: Non-Toxic | Activity [33]: Non-Toxic | Activity [34]: Toxic
